# Test system: Wistar outbred rats
# Experiment: Single-dose acute toxicity, intragastric administration
# Format: in vivo, rat
# Conditions: for Changes Appearance / Changes Behavior / Changes Body Weight / Changes Feed Intake / Changes Organ Histology / Changes Organ Weight / Changes Water Intake: 14-day follow-up; for Relative organ weight, Adrenal glands / Relative organ weight, Brain / Relative organ weight, Heart / Relative organ weight, Kidneys / Relative organ weight, Liver / Relative organ weight, Lungs with trachea / Relative organ weight, Ovaries / Relative organ weight, Spleen / Relative organ weight, Thymus / Relative organ weight, Testes: after 15 days, M±SEM; for number of animals that died: all dose groups; for Deaths (Dead/ Total): Wistar, rat, in vivo
# Protocol: Before administration, the BX-SI043 substance was resuspended in a 1% starch solution. The animals in the treatment groups received suspensions intragastrically in doses of 2000 mg/kg (administered in two equal doses, with a 30–40 min interval), 1000 mg/kg, 600 mg/kg, and 300 mg/kg (administered in single doses).
# The animals were monitored daily for any abnormalities. On the 2nd, 7th, and 13th days after administration, the animals were clinically evaluated and weighed, and the consumption of feed and water were measured. On the 14th day, the behavior of the animals was evaluated. On the 15th day, the animals were euthanized, and the lungs (with trachea), heart, thymus, liver, kidneys, spleen, stomach, small intestine, colon, brain, adrenal glands, and testes/ovaries were fixed in 10% neutral formalin for histological evaluation.
# [1] = female rats, 300 mg/kg intragastric
# [2] = female rats, 600 mg/kg intragastric
# [3] = female rats, 1000 mg/kg intragastric
# [4] = female rats, 2000 mg/kg intragastric
# [5] = male rats, 300 mg/kg intragastric
# [6] = male rats, 600 mg/kg intragastric
# [7] = male rats, 1000 mg/kg intragastric
# [8] = male rats, 2000 mg/kg intragastric
compound,measurement,setting,value
"CCOC(=O)c1[nH]c2cc(F)ccc2c1/N=N/N1CCCC1 [BX-SI043, Ethyl (E)-6-fluoro-3-(pyrrolidin-1-yldiazenyl)-1H-indole-2-carboxylate]",Changes Appearance,[1],no
same,Changes Behavior,[1],no
same,Changes Body Weight,[1],no
same,Changes Feed Intake,[1],no
same,Changes Organ Histology,[1],no
same,Changes Organ Weight,[1],no
same,Changes Water Intake,[1],no
same,"Relative organ weight, Adrenal glands",[1],"0,03±0,003 % of body weight"
same,"Relative organ weight, Brain",[1],"0,84±0,032 % of body weight"
same,"Relative organ weight, Heart",[1],"0,46±0,012 % of body weight"
same,"Relative organ weight, Kidneys",[1],"0,87±0,065 % of body weight"
same,"Relative organ weight, Liver",[1],"4,79±0,090 % of body weight"
same,"Relative organ weight, Lungs with trachea",[1],"0,77±0,037 % of body weight"
same,"Relative organ weight, Ovaries",[1],"0,067±0,0043 % of body weight"
same,"Relative organ weight, Spleen",[1],"0,37±0,033 % of body weight"
same,"Relative organ weight, Thymus",[1],"0,280±0,016 % of body weight"
same,"Body weight, M±SEM","female rats, 300 mg/kg intragastric, experiment day 1","195,3±3,67 g"
same,"Body weight, M±SEM","female rats, 300 mg/kg intragastric, experiment day 2","194,8±3,92 g"
same,"Body weight, M±SEM","female rats, 300 mg/kg intragastric, experiment day 7","220,0±7,86 g"
same,"Body weight, M±SEM","female rats, 300 mg/kg intragastric, experiment day 15","234,7±9,33 g"
same,Changes Appearance,[2],no
same,Changes Behavior,[2],no
same,Changes Body Weight,[2],no
same,Changes Feed Intake,[2],no
same,Changes Organ Histology,[2],yes
same,Changes Organ Weight,[2],no
same,Changes Water Intake,[2],no
same,"Relative organ weight, Adrenal glands",[2],"0,04±0,002 % of body weight"
same,"Relative organ weight, Brain",[2],"0,86±0,031 % of body weight"
same,"Relative organ weight, Heart",[2],"0,48±0,007 % of body weight"
same,"Relative organ weight, Kidneys",[2],"0,78±0,021 % of body weight"
same,"Relative organ weight, Liver",[2],"4,64±0,067 % of body weight"
same,"Relative organ weight, Lungs with trachea",[2],"0,82±0,044 % of body weight"
same,"Relative organ weight, Ovaries",[2],"0,066±0,0032 % of body weight"
same,"Relative organ weight, Spleen",[2],"0,33±0,045 % of body weight"
same,"Relative organ weight, Thymus",[2],"0,310±0,013 % of body weight"
same,"Body weight, M±SEM","female rats, 600 mg/kg intragastric, experiment day 1","195,2±4,56 g"
same,"Body weight, M±SEM","female rats, 600 mg/kg intragastric, experiment day 2","207,7±4,08 g"
same,"Body weight, M±SEM","female rats, 600 mg/kg intragastric, experiment day 7","222,5±5,43 g"
same,"Body weight, M±SEM","female rats, 600 mg/kg intragastric, experiment day 15","221,2±5,98 g"
same,Changes Appearance,[3],no
same,Changes Behavior,[3],yes
same,Changes Body Weight,[3],no
same,Changes Feed Intake,[3],yes
same,Changes Organ Histology,[3],yes
same,Changes Organ Weight,[3],no
same,Changes Water Intake,[3],no
same,"Relative organ weight, Adrenal glands",[3],"0,04±0,004 % of body weight"
same,"Relative organ weight, Brain",[3],"0,97±0,022 % of body weight"
same,"Relative organ weight, Heart",[3],"0,52±0,02 % of body weight"
same,"Relative organ weight, Kidneys",[3],"0,82±0,027 % of body weight"
same,"Relative organ weight, Liver",[3],"4,67±0,23 % of body weight"
same,"Relative organ weight, Lungs with trachea",[3],"0,79±0,057 % of body weight"
same,"Relative organ weight, Ovaries",[3],"0,085±0,0075 % of body weight"
same,"Relative organ weight, Spleen",[3],"0,42±0,05 % of body weight"
same,"Relative organ weight, Thymus",[3],"0,270±0,020 % of body weight"
same,"Body weight, M±SEM","female rats, 1000 mg/kg intragastric, experiment day 1","185,7±4,61 g"
same,"Body weight, M±SEM","female rats, 1000 mg/kg intragastric, experiment day 2","192,2±3,94 g"
same,"Body weight, M±SEM","female rats, 1000 mg/kg intragastric, experiment day 7","189,6±6,16 g"
same,"Body weight, M±SEM","female rats, 1000 mg/kg intragastric, experiment day 15","199,2±6,46 g"
same,Changes Appearance,[4],yes
same,Changes Behavior,[4],yes
same,Changes Body Weight,[4],no
same,Changes Feed Intake,[4],yes
same,Changes Organ Histology,[4],yes
same,Changes Organ Weight,[4],no
same,Changes Water Intake,[4],no
same,"Relative organ weight, Adrenal glands",[4],"0,04±0,004 % of body weight"
same,"Relative organ weight, Brain",[4],"0,93±0,027 % of body weight"
same,"Relative organ weight, Heart",[4],"0,41±0,079 % of body weight"
same,"Relative organ weight, Kidneys",[4],"0,89±0,033 % of body weight"
same,"Relative organ weight, Liver",[4],"4,73±0,167 % of body weight"
same,"Relative organ weight, Lungs with trachea",[4],"0,9±0,07 % of body weight"
same,"Relative organ weight, Ovaries",[4],"0,088±0,0092 % of body weight"
same,"Relative organ weight, Spleen",[4],"0,38±0,028 % of body weight"
same,"Relative organ weight, Thymus",[4],"0,310±0,032 % of body weight"
same,"Body weight, M±SEM","female rats, 2000 mg/kg intragastric, experiment day 1","196,5±2,06 g"
same,"Body weight, M±SEM","female rats, 2000 mg/kg intragastric, experiment day 2","205,8±1,64 g"
same,"Body weight, M±SEM","female rats, 2000 mg/kg intragastric, experiment day 7","183,5±11,99 g"
same,"Body weight, M±SEM","female rats, 2000 mg/kg intragastric, experiment day 15","210,8±5,91 g"
same,number of animals that died,female rats,2 animals
same,Deaths (Dead/ Total),"female, 300 mg/kg, 14 days",0/6
same,Deaths (Dead/ Total),"female, 600 mg/kg, 14 days",0/6
same,Deaths (Dead/ Total),"female, 1000 mg/kg, 14 days",1/6
same,Deaths (Dead/ Total),"female, 2000 mg/kg, 14 days",1/6
same,Changes Appearance,[5],no
same,Changes Behavior,[5],no
same,Changes Body Weight,[5],no
same,Changes Feed Intake,[5],no
same,Changes Organ Histology,[5],no
same,Changes Organ Weight,[5],no
same,Changes Water Intake,[5],no
same,"Relative organ weight, Adrenal glands",[5],"0,022±0,0012 % of body weight"
same,"Relative organ weight, Brain",[5],"0,77±0,020 % of body weight"
same,"Relative organ weight, Heart",[5],"0,45±0,012 % of body weight"
same,"Relative organ weight, Kidneys",[5],"0,98±0,046 % of body weight"
same,"Relative organ weight, Liver",[5],"4,53±0,26 % of body weight"
same,"Relative organ weight, Lungs with trachea",[5],"0,71±0,034 % of body weight"
same,"Relative organ weight, Spleen",[5],"0,34±0,017 % of body weight"
same,"Relative organ weight, Testes",[5],"1,17±0,039 % of body weight"
same,"Relative organ weight, Thymus",[5],"0,246±0,0276 % of body weight"
same,"Body weight, M±SEM","male rats, 300 mg/kg intragastric, experiment day 1","202,8±2,87 g"
same,"Body weight, M±SEM","male rats, 300 mg/kg intragastric, experiment day 2","205,7±1,73 g"
same,"Body weight, M±SEM","male rats, 300 mg/kg intragastric, experiment day 7","256,7±4,65 g"
same,"Body weight, M±SEM","male rats, 300 mg/kg intragastric, experiment day 15","280,8±8,21 g"
same,Changes Appearance,[6],no
same,Changes Behavior,[6],no
same,Changes Body Weight,[6],no
same,Changes Feed Intake,[6],no
same,Changes Organ Histology,[6],yes
same,Changes Organ Weight,[6],no
same,Changes Water Intake,[6],no
same,"Relative organ weight, Adrenal glands",[6],"0,028±0,0017 % of body weight"
same,"Relative organ weight, Brain",[6],"0,77±0,013 % of body weight"
same,"Relative organ weight, Heart",[6],"0,50±0,013 % of body weight"
same,"Relative organ weight, Kidneys",[6],"0,94±0,031 % of body weight"
same,"Relative organ weight, Liver",[6],"4,69±0,216 % of body weight"
same,"Relative organ weight, Lungs with trachea",[6],"0,86±0,108 % of body weight"
same,"Relative organ weight, Spleen",[6],"0,32±0,036 % of body weight"
same,"Relative organ weight, Testes",[6],"1,28±0,033 % of body weight"
same,"Relative organ weight, Thymus",[6],"0,27±0,0191 % of body weight"
same,"Body weight, M±SEM","male rats, 600 mg/kg intragastric, experiment day 1","201,3±2,80 g"
same,"Body weight, M±SEM","male rats, 600 mg/kg intragastric, experiment day 2","222,2±2,63 g"
same,"Body weight, M±SEM","male rats, 600 mg/kg intragastric, experiment day 7","253,3±4,15 g"
same,"Body weight, M±SEM","male rats, 600 mg/kg intragastric, experiment day 15","274,3±6,51 g"
same,Changes Appearance,[7],no
same,Changes Behavior,[7],yes
same,Changes Body Weight,[7],no
same,Changes Feed Intake,[7],yes
same,Changes Organ Histology,[7],yes
same,Changes Organ Weight,[7],no
same,Changes Water Intake,[7],no
same,"Relative organ weight, Adrenal glands",[7],"0,027±0,0022 % of body weight"
same,"Relative organ weight, Brain",[7],"0,77±0,036 % of body weight"
same,"Relative organ weight, Heart",[7],"0,51±0,022 % of body weight"
same,"Relative organ weight, Kidneys",[7],"0,87±0,008 % of body weight"
same,"Relative organ weight, Liver",[7],"4,91±0,128 % of body weight"
same,"Relative organ weight, Lungs with trachea",[7],"1,00±0,096 % of body weight"
same,"Relative organ weight, Spleen",[7],"0,32±0,031 % of body weight"
same,"Relative organ weight, Testes",[7],"1,11±0,064 % of body weight"
same,"Relative organ weight, Thymus",[7],"0,278±0,0278 % of body weight"
same,"Body weight, M±SEM","male rats, 1000 mg/kg intragastric, experiment day 1","191,0±5,79 g"
same,"Body weight, M±SEM","male rats, 1000 mg/kg intragastric, experiment day 2","206,5±6,61 g"
same,"Body weight, M±SEM","male rats, 1000 mg/kg intragastric, experiment day 7","231,8±12,48 g"
same,"Body weight, M±SEM","male rats, 1000 mg/kg intragastric, experiment day 15","273,0±11,56 g"
same,Changes Appearance,[8],yes
same,Changes Behavior,[8],yes
same,Changes Body Weight,[8],no
same,Changes Feed Intake,[8],yes
same,Changes Organ Histology,[8],yes
same,Changes Organ Weight,[8],no
same,Changes Water Intake,[8],no
same,"Relative organ weight, Adrenal glands",[8],"0,026±0,0014 % of body weight"
same,"Relative organ weight, Brain",[8],"0,78±0,024 % of body weight"
same,"Relative organ weight, Heart",[8],"0,48±0,046 % of body weight"
same,"Relative organ weight, Kidneys",[8],"0,90±0,034 % of body weight"
same,"Relative organ weight, Liver",[8],"4,08±0,252 % of body weight"
same,"Relative organ weight, Lungs with trachea",[8],"0,75±0,037 % of body weight"
same,"Relative organ weight, Spleen",[8],"0,28±0,018 % of body weight"
same,"Relative organ weight, Testes",[8],"1,2±0,120 % of body weight"
same,"Relative organ weight, Thymus",[8],"0,20±0,0116 % of body weight"
same,"Body weight, M±SEM","male rats, 2000 mg/kg intragastric, experiment day 1","196,0±1,61 g"
same,"Body weight, M±SEM","male rats, 2000 mg/kg intragastric, experiment day 2","212,7±3,91 g"
same,"Body weight, M±SEM","male rats, 2000 mg/kg intragastric, experiment day 7","236,0±1,53 g"
same,"Body weight, M±SEM","male rats, 2000 mg/kg intragastric, experiment day 15","259,7±3,18 g"
same,number of animals that died,male rats,4 animals
same,Deaths (Dead/ Total),"male, 300 mg/kg, 14 day",0/6
same,Deaths (Dead/ Total),"male, 600 mg/kg, 14 day",0/6
same,Deaths (Dead/ Total),"male, 1000 mg/kg, 14 day",1/6
same,Deaths (Dead/ Total),"male, 2000 mg/kg, 14 day",3/6

# — publication PMC11899342, “Novel Triazeneindole Antibiotics: Synthesis and Hit-to-Lead Optimization” (International Journal of Molecular Sciences, 2025)
